Measurements reported in patent US20210045385A1, “PYRIDAZINONE-SUBSTITUTED KETOXIMES AS HERBICIDES” (FMC Corporation, priority 2018, published 2021).

How the values were obtained:
Type in all cases: in vivo
[1] = tested on: ragweed (common ragweed, Ambrosia artemisiifolia); assay: Test C postemergence, visual plant response rating
How it was run: (§1)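 Visual injury on a 0 (no effect) to 100 (complete control) scale versus untreated controls, scored approximately 10 d after treatment under greenhouse conditions. Treatments used surfactant-containing non-phytotoxic solvent formulations, sprayed onto loam–sand soil preemergence or onto one- to two-leaf plants 2–10 cm tall postemergence.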

[2] = tested on: foxtail, giant (giant foxtail, Setaria faberi); assay: Test C postemergence, visual plant response rating
How it was run: as §1

[3] = tested on: pigweed (Amaranthus retroflexus); assay: Test C postemergence, visual plant response rating
How it was run: as §1

[4] = tested on: wheat (Triticum aestivum); assay: Test C postemergence, visual plant response rating
How it was run: as §1

[5] = tested on: barnyardgrass (Echinochloa crus-galli); assay: Test C postemergence, visual plant response rating
How it was run: as §1

corn (Zea mays) = assay: Test C postemergence, visual plant response rating
How it was run: as §1

[6] = tested on: galium (catchweed bedstraw, Galium aparine); assay: Test C postemergence, visual plant response rating
How it was run: as §1

[7] = tested on: blackgrass (Alopecurus myosuroides); assay: Test C postemergence, visual plant response rating
How it was run: as §1

kochia (Bassia scoparia) [8] = assay: Test C postemergence, visual plant response rating
How it was run: as §1

[9] = tested on: Italian ryegrass (Lolium mutiflorum); assay: Test C postemergence, visual plant response rating
How it was run: as §1

[10] = tested on: ragweed (common ragweed, Ambrosia artemisiifolia); assay: Test C preemergence, visual plant response rating; conditions: Test C, 0 is no effect, 100 is complete control
How it was run: as §1

[11] = tested on: foxtail, giant (giant foxtail, Setaria faberi); assay: Test C preemergence, visual plant response rating; conditions: Test C, 0 is no effect, 100 is complete control
How it was run: as §1

[12] = tested on: pigweed (Amaranthus retroflexus); assay: Test C preemergence, visual plant response rating; conditions: Test C, 0 is no effect, 100 is complete control
How it was run: as §1

[13] = tested on: barnyardgrass (Echinochloa crus-galli); assay: Test C preemergence, visual plant response rating; conditions: Test C, 0 is no effect, 100 is complete control
How it was run: as §1

kochia (Bassia scoparia) [14] = assay: Test C preemergence, visual plant response rating; conditions: Test C, 0 is no effect, 100 is complete control
How it was run: as §1

[15] = tested on: Italian ryegrass (Lolium mutiflorum); assay: Test C preemergence, visual plant response rating; conditions: Test C, 0 is no effect, 100 is complete control
How it was run: as §1

[16] = tested on: sedge umbrella (small-flower umbrella sedge, Cyperus difformis); assay: Test D flooded paddy test, visual plant response rating; conditions: 250 g ai/ha, scale 0 to 100 (0 no effect, 100 complete control), 13 to 15 d
How it was run: (§2)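 Rating is visual, on a 0 (no effect) to 100 (complete control) scale versus controls, taken 13 to 15 d after treatment in a greenhouse. Treatment went into paddy water kept 3 cm above the soil surface, with plants at the 2-leaf stage.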

rice (Oryza sativa) = assay: as above; conditions: 250 g ai/ha, scale 0 to 100 (0 no effect, 100 complete control), 13 to 15 d
How it was run: as §2

[17] = tested on: duck salad (Heteranthera limosa); assay: as above; conditions: 250 g ai/ha, scale 0 to 100 (0 no effect, 100 complete control), 13 to 15 d
How it was run: as §2

[18] = tested on: barnyardgrass (Echinochloa crus-galli); assay: as above; conditions: 250 g ai/ha, scale 0 to 100 (0 no effect, 100 complete control), 13 to 15 d
How it was run: as §2

[19] = Test C, postemergence, 125 g ai/ha

| SMILES | Ragweed plant response rating (0 to 100 scale) ([1]; Postemergence, 31 g ai/ha) | Ragweed plant response rating (0 to 100 scale) [1, 19] | Foxtail, Giant plant response rating (0 to 100 scale) ([2]; Postemergence, 31 g ai/ha) | Foxtail, Giant plant response rating (0 to 100 scale) [2, 19] | Pigweed plant response rating (0 to 100 scale) ([3]; Postemergence, 31 g ai/ha) | Pigweed plant response rating (0 to 100 scale) [3, 19] | Wheat plant response rating (0 to 100 scale) ([4]; Postemergence, 31 g ai/ha) | Wheat plant response rating (0 to 100 scale) [4, 19] | Barnyardgrass plant response rating (0 to 100 scale) ([5]; Postemergence, 31 g ai/ha) | Barnyardgrass plant response rating (0 to 100 scale) [5, 19] | Corn plant response rating (0 to 100 scale) (corn (Zea mays); Postemergence, 31 g ai/ha) | Corn plant response rating (0 to 100 scale) (corn (Zea mays); [19]) | Galium plant response rating (0 to 100 scale) ([6]; Postemergence, 31 g ai/ha) | Galium plant response rating (0 to 100 scale) [6, 19] | Blackgrass plant response rating (0 to 100 scale) ([7]; Postemergence, 31 g ai/ha) | Blackgrass plant response rating (0 to 100 scale) [7, 19] | Kochia plant response rating (0 to 100 scale) (kochia (Bassia scoparia) [8]; Postemergence, 31 g ai/ha) | Kochia plant response rating (0 to 100 scale) (kochia (Bassia scoparia) [8]; [19]) | Ryegrass, Italian plant response rating (0 to 100 scale) ([9]; Postemergence, 31 g ai/ha) | Ryegrass, Italian plant response rating (0 to 100 scale) [9, 19] | further results |
| --- | --- | --- | --- | --- | --- | --- | --- | --- | --- | --- | --- | --- | --- | --- | --- | --- | --- | --- | --- | --- | --- |
| CO/N=C(/c1c(O)c(C)nn(C)c1=O)c1cccc2cc(SC)ccc12 [Compound 297] | 0 | 0 | 0 | 0 | 0 | 0 | 0 | 0 | 0 | 0 | 0 | 0 | 0 | 0 | 0 | 0 | 0 | 0 | 0 | 0 | Ragweed plant response rating (0 to 100 scale) ([10]; 31 g ai/ha): 0; Ragweed plant response rating (0 to 100 scale) ([10]; 125 g ai/ha): 0; Foxtail, Giant plant response rating (0 to 100 scale) ([11]; 31 g ai/ha): 0; Foxtail, Giant plant response rating (0 to 100 scale) ([11]; 125 g ai/ha): 0; Pigweed plant response rating (0 to 100 scale) ([12]; 31 g ai/ha): 0; Pigweed plant response rating (0 to 100 scale) ([12]; 125 g ai/ha): 0; Barnyardgrass plant response rating (0 to 100 scale) ([13]; 31 g ai/ha): 0; Barnyardgrass plant response rating (0 to 100 scale) ([13]; 125 g ai/ha): 0; Kochia plant response rating (0 to 100 scale) (kochia (Bassia scoparia) [14]; 31 g ai/ha): 0; Kochia plant response rating (0 to 100 scale) (kochia (Bassia scoparia) [14]; 125 g ai/ha): 0; Ryegrass, Italian plant response rating (0 to 100 scale) ([15]; 31 g ai/ha): 0; Ryegrass, Italian plant response rating (0 to 100 scale) ([15]; 125 g ai/ha): 0; Plant response rating, Sedge, Umbrella (Flood) [16]: 0; Plant response rating, Rice (Flood) (rice (Oryza sativa)): 0; Plant response rating, Ducksalad (Flood) [17]: 0; Plant response rating, Barnyardgrass (Flood) [18]: 0 |
| CO/N=C(/c1c(O)c(C)nn(C)c1=O)c1cc(SC)cc2ccccc12 [Compound 298] | 0 | 10 | 0 | 0 | 0 | 40 | 0 | 0 | 0 | 0 | 0 | 0 | 0 | 30 | 0 | 20 | 0 | 10 | 0 | 0 | Ragweed plant response rating (0 to 100 scale) ([10]; 31 g ai/ha): 0; Ragweed plant response rating (0 to 100 scale) ([10]; 125 g ai/ha): 0; Foxtail, Giant plant response rating (0 to 100 scale) ([11]; 31 g ai/ha): 0; Foxtail, Giant plant response rating (0 to 100 scale) ([11]; 125 g ai/ha): 0; Pigweed plant response rating (0 to 100 scale) ([12]; 31 g ai/ha): 0; Pigweed plant response rating (0 to 100 scale) ([12]; 125 g ai/ha): 10; Barnyardgrass plant response rating (0 to 100 scale) ([13]; 31 g ai/ha): 0; Barnyardgrass plant response rating (0 to 100 scale) ([13]; 125 g ai/ha): 0; Kochia plant response rating (0 to 100 scale) (kochia (Bassia scoparia) [14]; 31 g ai/ha): 0; Kochia plant response rating (0 to 100 scale) (kochia (Bassia scoparia) [14]; 125 g ai/ha): 0; Ryegrass, Italian plant response rating (0 to 100 scale) ([15]; 31 g ai/ha): 0; Ryegrass, Italian plant response rating (0 to 100 scale) ([15]; 125 g ai/ha): 0; Plant response rating, Sedge, Umbrella (Flood) [16]: 0; Plant response rating, Rice (Flood) (rice (Oryza sativa)): 0; Plant response rating, Ducksalad (Flood) [17]: 0; Plant response rating, Barnyardgrass (Flood) [18]: 0 |
| CON=C(c1cc(Cl)cc(Cl)c1F)c1c(O)c(C)nn(C)c1=O [Compound 299] | 100 | 100 | 90 | 100 | 90 | 100 | 30 | 70 | 70 | 90 | 10 | 30 | 100 | 100 | 80 | 80 | 100 | 100 | 100 | 100 | Ragweed plant response rating (0 to 100 scale) ([10]; 31 g ai/ha): 90; Ragweed plant response rating (0 to 100 scale) ([10]; 125 g ai/ha): 100; Foxtail, Giant plant response rating (0 to 100 scale) ([11]; 31 g ai/ha): 100; Foxtail, Giant plant response rating (0 to 100 scale) ([11]; 125 g ai/ha): 100; Pigweed plant response rating (0 to 100 scale) ([12]; 31 g ai/ha): 100; Pigweed plant response rating (0 to 100 scale) ([12]; 125 g ai/ha): 100; Barnyardgrass plant response rating (0 to 100 scale) ([13]; 31 g ai/ha): 90; Barnyardgrass plant response rating (0 to 100 scale) ([13]; 125 g ai/ha): 100; Kochia plant response rating (0 to 100 scale) (kochia (Bassia scoparia) [14]; 31 g ai/ha): 90; Kochia plant response rating (0 to 100 scale) (kochia (Bassia scoparia) [14]; 125 g ai/ha): 100; Ryegrass, Italian plant response rating (0 to 100 scale) ([15]; 31 g ai/ha): 100; Ryegrass, Italian plant response rating (0 to 100 scale) ([15]; 125 g ai/ha): 100; Plant response rating, Sedge, Umbrella (Flood) [16]: 90; Plant response rating, Rice (Flood) (rice (Oryza sativa)): 45; Plant response rating, Ducksalad (Flood) [17]: 80; Plant response rating, Barnyardgrass (Flood) [18]: 85 |
| CO/N=C(\c1c(O)c(C)nn(C)c1=O)c1cccc2cc(Cl)ccc12 [Compound 300] | 30 | 90 | 60 | 80 | 80 | 80 | 0 | 0 | 30 | 70 | 10 | 30 | 90 | 100 | 30 | 80 | 40 | 50 | 10 | 40 | Ragweed plant response rating (0 to 100 scale) ([10]; 31 g ai/ha): 0; Ragweed plant response rating (0 to 100 scale) ([10]; 125 g ai/ha): 20; Foxtail, Giant plant response rating (0 to 100 scale) ([11]; 31 g ai/ha): 40; Foxtail, Giant plant response rating (0 to 100 scale) ([11]; 125 g ai/ha): 80; Pigweed plant response rating (0 to 100 scale) ([12]; 31 g ai/ha): 30; Pigweed plant response rating (0 to 100 scale) ([12]; 125 g ai/ha): 90; Barnyardgrass plant response rating (0 to 100 scale) ([13]; 31 g ai/ha): 40; Barnyardgrass plant response rating (0 to 100 scale) ([13]; 125 g ai/ha): 60; Kochia plant response rating (0 to 100 scale) (kochia (Bassia scoparia) [14]; 31 g ai/ha): 0; Kochia plant response rating (0 to 100 scale) (kochia (Bassia scoparia) [14]; 125 g ai/ha): 30; Ryegrass, Italian plant response rating (0 to 100 scale) ([15]; 31 g ai/ha): 10; Ryegrass, Italian plant response rating (0 to 100 scale) ([15]; 125 g ai/ha): 70; Plant response rating, Sedge, Umbrella (Flood) [16]: 45; Plant response rating, Rice (Flood) (rice (Oryza sativa)): 20; Plant response rating, Ducksalad (Flood) [17]: 55; Plant response rating, Barnyardgrass (Flood) [18]: 15 |
